# Tests used:
# [1] = Plasma and urinary profiles of isoflavones after acute and chronic administration of isoflavone tablets (Promensil composition), HPLC
# Description: The plasma and urinary profiles of isoflavones after acute and chronic administration of […] of isoflavones (genistein […], daidzein 0.5 mg, biochanin […], and formononetin 14 mg) in fourteen subjects was analysed. The composition corresponds to the Promensil product (Registered Trade Mark, Novogen Research Pty Ltd, Australia). Venous plasma and urine were collected at intervals for 24 h after which subjects commenced taking two tablets each day for two weeks and repeated plasma samples and urine were collected for a 48 h period after the last does. Plasma and urine isoflavones were assayed by HPLC.
# [2] = tested on: cancer; details: cited from earlier work
# [3] = tested on: human estrogen receptor (hER); details: cited from earlier work
SMILES,plasma concentrations relative to the methylated precursors ([1]; in vivo),anti-cancer actions [2],detectability in plasma and urine ([1]; in vivo),plasma concentrations relative to the methylated precursors ([1]; after acute dosing of the isoflavone tablets),estrogenic potency relative to daidzein [3],binding affinity for the hER compared to daidzein [3]
O=c1c(-c2ccc(O)cc2)coc2cc(O)ccc12 [daidzein],much higher concentrations than their methylated precursors,virtually none,–,–,–,–
COc1ccc(-c2coc3cc(O)ccc3c2=O)cc1 [formononetin],–,–,remained detectable in both plasma and urine at all times,–,–,–
O=c1c(-c2ccc(O)cc2)coc2cc(O)cc(O)c12 [genistein],–,potent anti-cancer actions,–,much higher concentrations than their methylated precursors,approximately ten fold more estrogenic than daidzein,–
COc1ccc(-c2coc3cc(O)cc(O)c3c2=O)cc1 [biochanin],–,–,remained detectable in both plasma and urine at all times,–,about the same estrogenic potency as daidzein,lower binding affinity
